One test addresses T1, FASN-TE; rTE (recombinant TE domain of human FASN) (Homo sapiens, UniProt P49327). The test can be described thus: fluorogenic thioesterase assay. Format: biochemical.
Conditions: not given
T1 sequence (P49327 2218-2511 limits assumed): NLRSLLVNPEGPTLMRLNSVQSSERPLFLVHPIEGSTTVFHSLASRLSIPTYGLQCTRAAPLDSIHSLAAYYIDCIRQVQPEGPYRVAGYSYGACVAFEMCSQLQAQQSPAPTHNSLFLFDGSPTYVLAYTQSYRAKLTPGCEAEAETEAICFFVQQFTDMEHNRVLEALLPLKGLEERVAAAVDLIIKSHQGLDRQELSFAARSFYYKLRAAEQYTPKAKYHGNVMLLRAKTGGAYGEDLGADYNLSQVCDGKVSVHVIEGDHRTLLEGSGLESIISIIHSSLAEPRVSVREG
A word on the IC50: it is the concentration that inhibits the measured activity by half. Consider `O=C1C=C(N2CCOCC2)C(=O)c2c(O)cccc21` [1h, 8-Hydroxy-2-morpholinonaphthalene-1,4-dione], for which the IC50 was 26.4 µM.

`CC1=CC(=O)c2c(O)cccc2C1=O` [1d, plumbagin]: the IC50 is 10.9 µM. In the case of `O=C1C=CC(=O)c2c(O)cccc21` [1g, juglone], the IC50 turned out to be 0.1 µM. On to `CCCCCCCSC1=CC(=O)C=CC1=O` [2f, 2-(Heptylthio)cyclohexa-2,5-diene-1,4-dione], for which the IC50 was determined as 6.2 µM. Same read-out and setting: then `O=C1C=CC(=O)C(Sc2ccccc2)=C1` [2g, 2-(Phenylthio)cyclohexa-2,5-diene-1,4-dione], with 0.2 µM; and `CC1=CC(=O)c2ccccc2C1=O` [1c, menadione], with 21.9 µM; and `O=C1C=CC(=O)C(SC2CCCC2)=C1` [2e, 2-(Cyclopentylthio)cyclohexa-2,5-diene-1,4-dione], with 6.4 µM.

The same test, now with this note: read-out: rTE IC50; substrate 4-methylumbelliferyl heptanoate.
As for `CC1=C(Br)C(=O)c2ccccc2C1=O` [1a, NS-4390], the IC50 turned out to be 12.5 µM.

A further test has as its target T1, FASN-TE; rTE (recombinant TE domain of human FASN). In words: fluorogenic thioesterase assay. It is filed as biochemical.
Conditions: not given
This is another data set of the same source.
As for `O=C1C=CC(=O)c2c(O)ccc(O)c21` [1i, naphthazarin], the IC50 stood at 3.5 µM.

(Values after publication PMC4441091 (Chemical & pharmaceutical bulletin, 2014).)
